The record followed here is DBAASP.

≈ marks a conversion by molar mass, not a printed value. Where “and” joins values, the source holds several entries; their conditions need not be identical. Equal entries are not always repeated.

As usually defined, the MIC is the lowest concentration found to suppress growth. A lower MIC goes with greater potency.

Among the test systems are Escherichia coli K91BK; Escherichia coli ML-35; Bacillus megaterium; Escherichia coli UB1005; Listeria monocytogenes.
What all share (test): ≥ marks a high value that may be exact or a test limit, other limits are often not marked, values filed in µg/mL are converted to µM
Experiment [1] concerns Enterococcus faecium ATCC 51559.
In experiment [2] the test system is Staphylococcus aureus CCARM 3095.
In experiment [3] the test system is Bacillus subtilis KCTC 3068.
Experiment [4] relates to Pseudomonas aeruginosa CCARM 2109.
For experiment [5], the system named is Staphylococcus aureus CCARM 3090.
Experiment [6] has as its system Pseudomonas aeruginosa KCTC 1637.
For experiment [7], the system named is Pseudomonas aeruginosa CCARM 2095.
In experiment [8] the test system is Staphylococcus aureus IFO 12732.
The subject of experiment [9] is Bacillus subtilis IFO 3134.
Experiment [10] deals with Escherichia coli IFO 12734.
Experiment [11] deals with Pseudomonas aeruginosa IFO 12582.
In experiment [12] the test system is Mycobacterium tuberculosis CAS3.
The test system of experiment [13] is Mycobacterium tuberculosis FYX.
For experiment [14], the system named is Mycobacterium tuberculosis H37Rv.
The test system of experiment [15] is Mycobacterium tuberculosis.
In experiment [16] the test system is Mycobacterium tuberculosis WXY.
The test system of experiment [17] is Escherichia coli ATCC 25922.
Experiment [18] relates to Bacillus subtilis var. niger ATCC 9372.
Experiment [19] has as its system Bacillus anthracis Sterne 34F2.
The subject of experiment [20] is Burkholderia thailandensis.
The subject of experiment [21] is Pseudomonas aeruginosa ATCC 27853.
Experiment [22] deals with Staphylococcus aureus ATCC 25923.
Experiment [23] concerns Salmonella enterica subsp. enterica serovar Typhimurium ATCC 14028.
Experiment [24] concerns Salmonella enterica subsp. enterica serovar Typhimurium ATCC 14028s.
Experiment [25] has as its system Enterococcus faecalis ATCC 29212.
In experiment [26] the test system is Pseudomonas aeruginosa K799.
Experiment [27] deals with Staphylococcus epidermidis.
The test system of experiment [28] is Staphylococcus epidermidis KCTC 1917.
The subject of experiment [29] is Staphylococcus aureus CCARM 3543.
Experiment [30] concerns Staphylococcus aureus CCARM 3001.
The test system of experiment [31] is Salmonella typhimurium KCTC 1926.
The subject of experiment [32] is Staphylococcus aureus KCTC 1621.
Experiment [33] concerns Escherichia coli KCTC 1682.

In the case of `CC[C@H](C)[C@H](NC(=O)[C@H](CC(C)C)NC(=O)[C@H](CCCCN)NC(=O)[C@@H](NC(=O)[C@@H](NC(=O)[C@H](CCCN=C(N)N)NC(=O)[C@@H](N)CCCCN)[C@@H](C)CC)C(C)C)C(=O)N[C@@H](CCCCN)C(=O)N[C@@H](CCCCN)C(=O)N[C@@H](Cc1c[nH]c2ccccc12)C(=O)N[C@@H](CC(C)C)C(=O)N[C@@H](CCCN=C(N)N)C(N)=O` [KRIVKLIKKWLR], the MIC was at least 64 µM in [1]; at least 64 µM in [2]; 8 µM and 4 µM in [3]; at least 64 µM in experiment [4]; at least 64 µM in experiment [5]; 4 µM and 8 µM in [6]. The same compound showed an MIC in [7] of 4 µM (≈ 6.32 µg/mL).
As to `CC[C@H](C)[C@H](NC(=O)[C@H](C)NC(=O)[C@@H]1CCCN1C(=O)[C@@H](NC(=O)[C@@H](NC(=O)[C@H](Cc1cnc[nH]1)NC(=O)[C@H](C)NC(=O)[C@H](C)NC(=O)[C@@H](NC(=O)[C@H](CCCCN)NC(=O)[C@H](C)NC(=O)[C@H](CC(C)C)NC(=O)[C@@H](NC(=O)CNC(=O)[C@H](Cc1ccccc1)NC(=O)CN)C(C)C)C(C)C)C(C)C)C(C)C)C(=O)N[C@@H](C)C(=O)N[C@@H](CCC(=O)O)C(=O)N[C@@H](Cc1cnc[nH]1)C(=O)N[C@@H](Cc1ccccc1)C(N)=O` [GFGVLAKVAAHVVPAIAEHF], the minimal inhibitory concentration (MIC) in [8], in experiment [9], in [10] and in experiment [11] was at least 64 µM each time.
For `CC(C)C[C@H](NC(=O)[C@H](CCCCN)NC(=O)[C@H](CCCCN)NC(=O)[C@H](CO)NC(=O)[C@H](Cc1ccccc1)NC(=O)[C@H](CCCCN)NC(=O)CNC(=O)[C@@H]1CCCN1C(=O)CNC(=O)[C@H](CCCCN)NC(=O)[C@H](CC(C)C)NC(=O)CNC(=O)[C@H](CCCCN)NC(=O)[C@H](CC(C)C)NC(=O)CNC(=O)[C@H](Cc1c[nH]c2ccccc12)NC(=O)[C@@H](N)Cc1ccccc1)C(=O)O` [FWGLKGLKGPGKFSKKL], the MIC was at least 39.7 µM in experiment [12]; 19.8 µM (≈ 37.5 µg/mL) in [13]; 11.6 µM and 19.8 µM in experiment [14]; 14.8 µM (≈ 28 µg/mL) in [15]; at least 39.7 µM in [16]; above 25 µM in experiment [17].
`CC[C@H](C)[C@H](NC(=O)[C@H](CCCCN)NC(=O)[C@H](CCCN=C(N)N)NC(=O)CNC(=O)[C@H](CC(C)C)NC(=O)[C@H](CCCN=C(N)N)NC(=O)[C@H](CCCN=C(N)N)NC(=O)[C@H](CC(C)C)NC(=O)CNC(=O)[C@H](CCCN=C(N)N)NC(C)=O)C(=O)N[C@@H](C)C(=O)N[C@@H](Cc1cnc[nH]1)C(=O)NCC(=O)N[C@H](C(=O)N[C@@H](CCCCN)C(=O)N[C@@H](CCCCN)C(=O)N[C@@H](Cc1ccc(O)cc1)C(=O)NCC(=O)N1CCC[C@H]1C(=O)N[C@H](C(=O)N[C@H](C(=O)N[C@@H](CC(C)C)C(=O)N[C@@H](CCCN=C(N)N)C(=O)N[C@H](C(=O)N[C@H](C(=O)N[C@@H](CCCN=C(N)N)C(=O)N[C@H](C(=O)N[C@@H](C)C(=O)N[C@H](C(N)=O)[C@@H](C)O)[C@@H](C)O)[C@@H](C)CC)[C@@H](C)CC)C(C)C)[C@@H](C)O)C(C)C` [RGLRRLGRKIAHGVKKYGPTVLRIIRTAT]: the MIC was at least 36.1 µM against Escherichia coli K91BK, 3.13 µM (≈ 10.4 µg/mL) in experiment [18], 2.51 µM (≈ 8.36 µg/mL) in experiment [19] and at least 100 µM in experiment [20].
Turning to `CC[C@H](C)[C@H](NC(=O)[C@H](CCCCN)NC(=O)[C@H](CCCCN)NC(=O)[C@H](CC(C)C)NC(=O)[C@H](C)NC(=O)[C@H](CCC(=O)O)NC(=O)[C@H](CCCCN)NC(=O)[C@@H](NC(=O)[C@H](CCCCN)NC(=O)[C@H](CC(N)=O)NC(=O)[C@H](CCCN=C(N)N)NC(=O)[C@H](Cc1ccccc1)NC(=O)[C@H](CCCCN)NC(=O)[C@H](CCCN=C(N)N)NC(=O)[C@H](CC(C)C)NC(=O)[C@H](C)NC(=O)[C@H](CCCCN)NC(=O)[C@H](CCCN=C(N)N)NC(=O)[C@H](CC(C)C)NC(=O)CN)[C@@H](C)CC)C(=O)O` [GLRKALRKFRNKIKEALKKI], the MIC in experiment [21] is 2 µM (≈ 4.82 µg/mL); in [22] it was 2 µM (≈ 4.82 µg/mL); against Escherichia coli ML-35, 0.5 µM (≈ 1.21 µg/mL); in the experiment on Bacillus megaterium it was 2 µM (≈ 4.82 µg/mL); in experiment [17], 2 µM (≈ 4.82 µg/mL); in experiment [23], 0.5 µM (≈ 1.21 µg/mL).
Take `CC[C@H](C)[C@@H]1NC(=O)[C@H](C(C)C)NC(=O)[C@H](C(C)C)NC(=O)[C@H]([C@@H](C)CC)NC(=O)[C@@H]2CCCN2C(=O)[C@@H](NC(=O)[C@H](CCCN=C(N)N)NC(=O)[C@@H](N)CCCN=C(N)N)CSSC[C@@H](C(=O)N[C@@H](CCCN=C(N)N)C(=O)O)NC(=O)[C@H](C(C)C)NC(=O)[C@H](CCCN=C(N)N)NC1=O` [RRCPIVVIRVCR]: the MIC in the experiment on Escherichia coli UB1005 is 2.72 µM (≈ 3.99 µg/mL); in experiment [22], 21.8 µM (≈ 32 µg/mL); in [24], 10.9 µM (≈ 16 µg/mL); in [25], above 21.8 µM; in experiment [26], 21.8 µM (≈ 32 µg/mL); in experiment [27], 21.8 µM (≈ 32 µg/mL). The MIC against Listeria monocytogenes worked out at 10.9 µM (≈ 16 µg/mL).
On to `CC(C)C[C@H](NC(=O)[C@H](CC(C)C)NC(=O)[C@H](Cc1c[nH]c2ccccc12)NC(=O)[C@H](CCCCN)NC(=O)[C@H](CC(C)C)NC(=O)[C@H](Cc1c[nH]c2ccccc12)NC(=O)[C@H](CC(C)C)NC(=O)[C@H](CCCCN)NC(=O)[C@H](Cc1c[nH]c2ccccc12)NC(=O)[C@H](CC(C)C)NC(=O)[C@@H](N)CCCCN)C(N)=O` [KLWKLWLKWLL], for which the MIC in experiment [3] amounted to 8 µM (≈ 12.2 µg/mL); in experiment [28] it was 8 µM (≈ 12.2 µg/mL); in experiment [29], 4 µM (≈ 6.1 µg/mL); in [30] it was 4 µM (≈ 6.1 µg/mL); in experiment [4], 16 µM (≈ 24.4 µg/mL); in experiment [31] it was 4 µM (≈ 6.1 µg/mL). In addition, the MIC in experiment [6] came out at 8 µM (≈ 12.2 µg/mL); in experiment [7], 8 µM (≈ 12.2 µg/mL); in [32], 4 µM (≈ 6.1 µg/mL); in [33] it was 8 µM (≈ 12.2 µg/mL).
Turning to `CC[C@H](C)[C@H](NC(=O)[C@H](C)NC(=O)[C@@H]1CCCN1C(=O)[C@@H](NC(=O)[C@@H](NC(=O)[C@H](Cc1cnc[nH]1)NC(=O)[C@H](C)NC(=O)[C@H](C)NC(=O)[C@@H](NC(=O)[C@H](CCCCN)NC(=O)[C@H](C)NC(=O)[C@H](CC(C)C)NC(=O)[C@@H](NC(=O)CNC(=O)[C@H](Cc1ccccc1)NC(=O)[C@H](CC(C)C)NC(=O)CN)C(C)C)C(C)C)C(C)C)C(C)C)C(=O)N[C@@H](C)C(=O)N[C@@H](CCC(=O)O)C(=O)N[C@@H](Cc1cnc[nH]1)C(N)=O` [GLFGVLAKVAAHVVPAIAEH], the MIC in experiment [8], in experiment [9], in experiment [10] and in experiment [11] was at least 64 µM each time.
